Measured values: patent US7485259B2, “Organic compound and metal ion synergistic disinfection and purification system and method of manufacture” (priority 2003, dated 2009)

Columns and labels:
[1] = after 60 days; cited from earlier work
poliovirus = settings: in 12 hours; cited from earlier work
MS2 = settings: in 12 hours; cited from earlier work
[2] = tested on: L. pneumophila serogroup 1; settings: ion used alone; cited from earlier work
Klebsiella terrigena = test: Disinfection of seeded test waters, log reduction of Klebsiella; settings: seeded municipal water
MS2 bacteriophage = test: Disinfection of seeded test waters, log reduction of MS2 virus; settings: contact up to 24 hours

| Compound | share of initial input detectable in the test chambers [1] | log inactivation of poliovirus (poliovirus) | log inactivation of MS2 (MS2) | contact time to achieve complete (6 log) inactivation of Legionella [2] | log reduction of Klebsiella (Klebsiella terrigena; 60 minute contact time) | log reduction of Klebsiella (Klebsiella terrigena; 240 minutes contact time) | reduction of MS2 virus (MS2 bacteriophage; seeded municipal water) | reduction of MS2 virus (MS2 bacteriophage; seeded untreated natural waters) |
| --- | --- | --- | --- | --- | --- | --- | --- | --- |
| [Cu+2] [copper ions] | 75% | 1.3 log | 4.0 log | 2.5 hours | less than 3 log | less than 5 log | – | – |
| silver ions | 44% | – | – | 24 hours | 5 log | – | No effective reduction | No effective reduction |
